What all share (assay type): functional
The test system of one experiment is KB. Briefly: Cytotoxicity against human KB cells.
A further experiment has as its system A549. Kind of experiment: Cytotoxicity against human A549 cells.
For a further experiment, the system named is HCT-8. Briefly: Cytotoxicity against human HCT8 cells.
A further experiment deals with P388. Kind of experiment: Cytotoxicity against mouse P388 cells.
In a further experiment the test system is L1210. Briefly: Cytotoxicity against mouse L1210 cells.
Where [1] appears, read: read-out: ED50 (the source's name).

Values after ≈ are worked out from the molar mass of the structure shown. Active and inactive are the calls of the source. The calls are words filed in the database; no cut-off is given here.

As to `COc1cc2c(cc1O)C(=O)c1c(C)ccnc1-2`, the result with KB, in the experiment with A549, with HCT-8, in the experiment with P388 and with L1210 was inactive.

Turning to `O[C@H]1c2ccccc2-c2c3c(cc4c2[C@@H]1NCC4)OCO3`, the outcome in the experiment on KB, in the experiment on A549, in the experiment with HCT-8, in the experiment with P388 and in the experiment with L1210 was inactive.

As for `COc1c(O)cc2c(c1OC)-c1nccc(C)c1C2=O`, the outcome in the experiment on KB, in the experiment on A549, in the experiment on HCT-8, with P388 and in the experiment with L1210 was inactive.

On to `O=C1c2ccccc2-c2c3c(cc4ccnc1c24)OCO3` [LIRIODENINE], for which the EC50 was determined as 1 µg/mL (≈ 3.63 µM) in the experiment on KB (setting [1]); 0.72 µg/mL (≈ 2.62 µM) with A549 (setting [1]); 0.7 µg/mL (≈ 2.54 µM) in the experiment on HCT-8 (setting [1]); 0.57 µg/mL (≈ 2.07 µM) in the experiment with P388 (setting [1]); 2.33 µg/mL (≈ 8.46 µM) with L1210 (setting [1]).

For the compound `C[N+]1([O-])CCc2cc3c(c4c2[C@H]1[C@@H](O)c1ccccc1-4)OCO3` (stereo not given in full), the result with KB, in the experiment with A549, with HCT-8, in the experiment on P388 and in the experiment on L1210 was inactive.

With `COc1cc2c(cc1OC)-c1nccc(C)c1C2=O`, the result in the experiment with KB, in the experiment on A549, with HCT-8, in the experiment on P388 and in the experiment with L1210 was inactive.
